Results on 21 compounds are retold here after patent publication US10858344B2, “Hydantoin containing deoxyuridine triphosphatase inhibitors” (CV6 Therapeutics (NI) Limited, priority 2016, dated 2020).

pIC50: −log10 of the molar value.

This assay deals with recombinant human deoxyuridine nucleotidohydrolase (dUTPase) (Homo sapiens (Human), UniProt P33316). The experiment in a line: fluorescence-based dUTPase inhibition assay. Type of assay: biochemical. As to conditions: for % relative inhibition vs. positive control: mean over three concentrations, typically 100, 50 and 25 μmol/L, compared to in-run positive control. An excerpt:
Recombinant human deoxyuridine nucleotidohydrolase (dUTPase) is expressed and purified as described in Ladner R D, Carr S A, Huddleston M J, McNulty D E, Caradonna S J. J Biol Chem. 1996 Mar. 29; 271(13):7752-7. All drugs stocks are aliquoted and diluted as appropriate prior to use. The oligonucelotide primer, templates and fluorophore- and quencher-labeled detection probes are synthesized by Integrated DNA Technologies (Coralville, Iowa), subjected to polyacrylamide gel electrophoresis purification and reconstituted in Omnipur sterile nuclease-free water (EMD Chemicals USA, Gibbstown N.J.) at a stock concentration of 100 μmol/L. The two non-emissive (dark) quenching molecules incorporated into the detection probes include the Iowa black fluorescein quencher (IBFQ; absorption max 531 nm) and ZEN (non-abbreviation; absorption max 532 nm). The fluorescent label utilized is 6-FAM (5′-carboxyfluorescein; excitation max.=494 nm, emission max.=520 nm). Probes are further diluted to a working stock of 10 μmol/L and aliquoted to avoid repeated freeze/thaw cycles. AmpliTaq Gold DNA Polymerase, GeneAmp 10×PCR Buffer 2, MgCl2 and MicroAmp Optical 96-well Reaction Plates are purchased from Applied Biosystems (Carlsbad, Calif.). dNTPs are purchased individually at stock concentrations of 100 mmol/L from New England Biolabs at HPLC-certified >99% purity (Ipswich, Mass.).
Reaction mixtures contained primer, probe and template at an equimolar final concentration of 0.4 μmol/L. Magnesium chloride (MgCl2) is included at a final concentration of 2 mmol/L. Non-limiting dNTPs are included in the reaction mix in excess at a final concentration of 100 μmol/L (dUTP/dTTP is excluded). AmpliTaq Gold DNA polymerase is added at 0.875 U/reaction, 2.5 μl of 10×PCR buffer 2 added and nuclease-free ddH2O added to a final reaction volume of 25 μl. For dUTP inhibition analysis, the volume of ddH2O is further modified to accommodate an additional 1 μl of dUTPase (10 ng/μl) and 1 μl of inhibitor or DMSO control. Thermal profiling and fluorescence detection is performed using a customized thermal program on board a Roche Lightcycler LC480 Instrument II. For analysis of dNTPs, the thermal profile consisted of an 8 min 37° C. step followed by a 10 min 95° C. step to ‘hot-start’ the Taq polymerase and a primer extension time of up to 30 min at 60° C. Raw fluorescence spectra for 6-FAM is measured at specified time intervals to follow assay progression on board a Roche LightCycler 480 Software Version 1.5 and exported and analyzed in Microsoft Excel (Microsoft, Redmond Wash.) and Prism (GraphPad Software, La Jolla Calif.). Fluorescence values for blank reactions (limiting dNTP omitted) are subtracted to give normalized fluorescence units (NFU) to account for background fluorescence.
Test compounds are screened in a fluorescence-based assay. The assay employs a DNA polymerase-based approach utilizing an oligonucleotide template with 3 distinct regions: a 3′ primer binding region, a mid-template dUTP/thymidine triphosphate (TTP) detection region and a 5′ 6-[…] (FAM)-labeled probe binding region that incorporates a black hole quenching moiety. During the reaction, the probe and primer hybridize to the oligonucleotide template to form the template:primer:probe complex. When Taq polymerase binds to the primer in the TPP complex and dUTP is present, successful extension of the nascent strand occurs and the inherent 5′ to 3′ exonuclease activity of Taq polymerase cleaves and displaces the 6-FAM-labeled probe in a 5′ to 3′ direction, releasing the 6-FAM fluorophore from its proximity to the three quenchers. This displacement effectively disrupts the Förster resonance energy transfer (FRET) and the resulting fluorescence detected upon excitation is directly proportional to the amount of the dUTP available in the assay for incorporation. […]

Chain of recombinant human deoxyuridine nucleotidohydrolase (dUTPase) (P33316 other isoform, or with tags, fused parts or gaps): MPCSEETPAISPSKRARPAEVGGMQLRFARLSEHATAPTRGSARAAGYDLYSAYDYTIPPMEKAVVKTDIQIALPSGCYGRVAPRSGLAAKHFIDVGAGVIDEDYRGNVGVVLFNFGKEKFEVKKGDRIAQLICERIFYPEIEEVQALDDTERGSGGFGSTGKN

For `C[C@@H](NS(=O)(=O)CCCCCN1CC(=O)NC1=O)c1cccc(OC2CCCC2)c1` [Example 89, (R)—N-(1-(3-(cyclopentyloxy)phenyl)ethyl)-5-(2,4-dioxoimidazolidin-1-yl)pentane-1-sulfonamide], the pIC50 is 6.10 and the “% relative inhibition vs. positive control” value is 93%.

With `CC(Oc1cc([C@@H](C)NS(=O)(=O)CCCCCN2CC(=O)NC2=O)ccc1F)C1CC1` (stereo partly drawn) [Example 90, N—((1R)-1-(3-(1-cyclopropylethoxy)-4-fluorophenyl)ethyl)-5-(2,4-dioxoimidazolidin-1-yl)pentane-1-sulfonamide], the pIC50 is 5.70 and the “% relative inhibition vs. positive control” value stood at 37%.

Turning to `C[C@@H](NS(=O)(=O)CCCCCN1CC(=O)NC1=O)c1ccc(F)c(OC[C@@H]2CCCN2C)c1` [Example 91, 5-(2,4-dioxoimidazolidin-1-yl)-N—((R)-1-(4-fluoro-3-(((S)-1-methylpyrrolidin-2-yl)methoxy)phenyl)ethyl)pentane-1-sulfonamide], the pIC50 is 3.82 and the “% relative inhibition vs. positive control” value turned out to be 1%.

In the case of `C[C@H](c1ccc(F)c(OCC2CC2)c1)N(C)S(=O)(=O)CCCCCN1CC(=O)NC1=O` [Example 92, (R)—N-(1-(3-(cyclopropylmethoxy)-4-fluorophenyl)ethyl)-5-(2,4-dioxoimidazolidin-1-yl)-N-methylpentane-1-sulfonamide], the pIC50 was 5.20 and the “% relative inhibition vs. positive control” value is recorded as 12%.

Regarding `C[C@@H](NS(=O)(=O)CCCCCN1CC(=O)N(C(=O)OC(C)(C)C)C1=O)c1ccc(F)c(OCC2CC2)c1` [Example 93], the pIC50 is 5.43 and the “% relative inhibition vs. positive control” value worked out at 20%.

As to `C[C@@H](NS(=O)(=O)CCCCCN1CC(=O)NC1=O)c1ccc(F)c(OS(=O)(=O)C(F)(F)F)c1` [Example 94, (R)-5-(1-((5-(2,4-dioxoimidazolidin-1-yl)pentyl)sulfonamido)ethyl)-2-fluorophenyl trifluoromethanesulfonate], the pIC50 was 3.82 and the “% relative inhibition vs. positive control” value was found to be 1%.

With `C[C@@H](NS(=O)(=O)CCCCCN1CC(=O)N(COCC[Si](C)(C)C)C1=O)c1ccc(F)c(OCC2CC2)c1` [Example 95, (R)—N-(1-(3-(cyclopropylmethoxy)-4-fluorophenyl)ethyl)-5-(2,4-dioxo-3-((2-(trimethylsilyl)ethoxy)methyl)-imidazolidin-1-yl)pentane-1-sulfonamide], the pIC50 is less than 4.60 and the “% relative inhibition vs. positive control” value was 0%.

In the case of `C[C@@H](NS(=O)(=O)CCCCCN1CC(=O)NC1=O)c1ccc(F)c(NCC2CC2)c1` [Example 96, (R)—N-(1-(3-((cyclopropylmethyl)amino)-4-fluorophenyl)ethyl)-5-(2,4-dioxoimidazolidin-1-yl)pentane-1-sulfonamide], the negative logarithm of the IC50 (pIC50) was 5.40 and the “% relative inhibition vs. positive control” value was 19%.

`[2H]C([2H])(Oc1cc([C@@H](C)NS(=O)(=O)CCCCCN2CC(=O)NC2=O)ccc1F)C1CC1` [Example 97, (R)—N-(1-(3-(cyclopropylmethoxy-d2)-4-fluorophenyl)ethyl)-5-(2,4-dioxoimidazolidin-1-yl)pentane-1-sulfonamide]: the “% relative inhibition vs. positive control” value turned out to be 182%.

`C[C@@H](NS(=O)(=O)CCCCCN1CC(=O)NC1=O)c1ccc(F)c(OC2CCOCC2)c1` [Example 98, (R)-5-(2,4-dioxoimidazolidin-1-yl)-N-(1-(4-fluoro-3-((tetrahydro-2H-pyran-4-yl)oxy)phenyl)ethyl)pentane-1-sulfonamide]: the pIC50 was 5.52 and the “% relative inhibition vs. positive control” value worked out at 25%.

Take `C[C@@H](NS(=O)(=O)CCCCCN1CC(=O)NC1=O)c1ccc(F)c(Oc2ccccc2)c1` [Example 99, (R)-5-(2,4-dioxoimidazolidin-1-yl)-N-(1-(4-fluoro-3-phenoxyphenyl)ethyl)pentane-1-sulfonamide]: the pIC50 is 5.90 and the “% relative inhibition vs. positive control” value came to 60%.

With `C[C@@H](NS(=O)(=O)CCCCCN1CC(=O)NC1=O)c1ccc(F)c(OCC2CCOCC2)c1` [Example 100, (R)-5-(2,4-dioxoimidazolidin-1-yl)-N-(1-(4-fluoro-3-((tetrahydro-2H-pyran-4-yl)methoxy)phenyl)ethyl) pentane-1-sulfonamide], the pIC50 was 4.85 and the “% relative inhibition vs. positive control” value is 5%.

Regarding `C[C@@H](NS(=O)(=O)CCCCCN1CC(=O)NC1=O)c1ccc(F)c(OCC(=O)O)c1` [Example 101, (R)-2-(5-(1-((5-(2,4-dioxoimidazolidin-1-yl)pentyl)sulfonamido)ethyl)-2-fluorophenoxy)acetic acid], the pIC50 is 4.70 and the “% relative inhibition vs. positive control” value was determined as 4%.

Consider `C[C@@H](NS(=O)(=O)CCCCCN1CC(=O)NC1=O)c1ccc(F)c(OCc2nn[nH]n2)c1` [Example 102, (R)—N-(1-(3-((2H-tetrazol-5-yl)methoxy)-4-fluorophenyl)ethyl)-5-(2,4-dioxoimidazolidin-1-yl)pentane-1-sulfonamide], for which the pIC50 was less than 4.60 and the “% relative inhibition vs. positive control” value worked out at 0%.

Regarding `CC(C)C(NS(=O)(=O)CCCCCN1CC(=O)NC1=O)c1ccc(F)c(OCC2CC2)c1` (centres unmarked) [Example 103, N-(1-(3-(cyclopropylmethoxy)-4-fluorophenyl)-2-methylpropyl)-5-(2,4-dioxoimidazolidin-1-yl)pentane-1-sulfonamide], the “% relative inhibition vs. positive control” value was 27%.

Turning to `O=C1CN(CCCCCS(=O)(=O)NC(c2ccc(F)c(OCC3CC3)c2)C2CC2)C(=O)N1` (centres unmarked) [Example 104, N-(cyclopropyl (3-(cyclopropylmethoxy)-4-fluorophenyl)methyl)-5-(2,4-dioxoimidazolidin-1-yl) pentane-1-sulfonamide], the “% relative inhibition vs. positive control” value stood at 57%.

With `O=C1CN(CCCCCS(=O)(=O)NC2CCc3c2ccc(F)c3OCC2CC2)C(=O)N1` (centres unmarked) [Example 105, N-(4-(cyclopropylmethoxy)-5-fluoro-2,3-dihydro-1H-inden-1-yl)-5-(2,4-dioxoimidazolidin-1-yl) pentane-1-sulfonamide], the “% relative inhibition vs. positive control” value is 36%.

For the compound `C[C@@H](NS(=O)(=O)CCn1ccc(N2CC(=O)NC2=O)n1)c1ccc(F)c(OCC2CC2)c1` [Example 106, (R)—N-(1-(3-(cyclopropylmethoxy)-4-fluorophenyl)ethyl)-2-(3-(2,4-dioxoimidazolidin-1-yl)-1H-pyrazol-1-yl)ethane-1-sulfonamide], the negative logarithm of the IC50 (pIC50) is 3.82 and the “% relative inhibition vs. positive control” value is 1%.

As to `C[C@@H](NS(=O)(=O)CC/C=C/CN1C(=O)NC(=O)C1(C)C)c1ccc(F)c(OCC2CC2)c1` [Example 112, (R,E)-N-(1-(3-(cyclopropylmethoxy)-4-fluorophenyl)ethyl)-5-(5,5-dimethyl-2,4-dioxoimidazolidin-1-yl)pent-3-ene-1-sulfonamide], the “% relative inhibition vs. positive control” value worked out at 50%.

Take `CC(C)COc1cc([C@@H](C)NS(=O)(=O)CCC=CCN2C(=O)NC(=O)C2(C)C)ccc1F` [Example 113, (R)-5-(5,5-dimethyl-2,4-dioxoimidazolidin-1-yl)-N-(1-(4-fluoro-3-isobutoxyphenyl)ethyl)pent-3-ene-1-sulfonamide]: the “% relative inhibition vs. positive control” value is recorded as 8%.

Take `C[C@@H](NS(=O)(=O)CCOCCN1CC(=O)NC1=O)c1cccc(OCC2CC2)c1` [Example 114, (R)—N-(1-(3-(cyclopropylmethoxy)phenyl)ethyl)-2-(2-(2,4-dioxoimidazolidin-1-yl)ethoxy)ethane-1-sulfonamide]: the “% relative inhibition vs. positive control” value was found to be 124%.

A word on the pIC50: it is the negative decadic logarithm of the IC50, by convention in mol/L.
